Read-outs that look alike come from different tables or passages of the source. Bounds are passed on as bounds.

The target of series [1] is T1, Human EGF receptor tyrosine kinase (Homo sapiens, UniProt P00533).
T1 construct: isolated from A431 human epidermoid carcinoma cells which overexpress EGF receptor; endogenous in cells; host or cells: A431 human epidermoid carcinoma cells; purified from the lysate on wheat germ agglutinin sepharose
The experiment in a line: EGF receptor tyrosine kinase inhibition (phosphorylation of PLC-gamma 1 derived peptide). In kind it is biochemical. As for the experimental part: Purification of Epidermal Growth Factor Receptor Tyrosine Kinase—Human EGF receptor tyrosine kinase was isolated from A431 human epidermoid carcinoma cells which overexpress EGF receptor by the following methods. Cells were grown in roller bottles in 50% Delbuco's Modified Eagle and 50% HAM F-12 nutrient media (Gibco) containing 10% fetal calf serum. Approximately 10^9 cells were lysed in two volumes of buffer containing 20 mM 2-(4N-[2-hydroxyethyl]piperazin-1-yl)ethanesulfonic acid (hepes), pH 7.4, 5 mM ethylene glycol bis(2-aminoethyl ether) N,N,N′,N′-tetraacetic acid, 1% Triton X-100, 10% glycerol, 0.1 mM sodium orthovanadate, 5 mM sodium fluoride, 4 mM pyrophosphate, 4 mM benzamide, 1 mM dithiothreitol, 80 μg/mL aprotinin, 40 μg/mL leupeptin and 1 mM phenylmethylsulfonyl fluoride. After centrifugation at 25,000×g for 10 minutes, the supernatant was equilibrated for 2 h at 4° C. with 10 mL of wheat germ agglutinin sepharose that was previously equilibrated with 50 mM Hepes, […], 0.1% Triton X-100 and 150 mM NaCl, pH 7.5, (equilibration buffer). Contaminating proteins were washed from the resin with 1 M NaCl in equilibration buffer, and the enzyme was eluted with 0.5 M N-acetyl-1-D-glucosamine in equilibration buffer, followed by 1 mM urea. The enzyme was eluted with 0.1 mg/ml EGF.
The reaction was terminated by the addition of 2 mL of […] phosphoric acid and passed through a 2.5 cm phosphocellulose filter disc to bind the peptide. The filter was washed five times with 75 mM phosphoric acid and placed in a vial along with 5 mL of scintillation fluid (Ready gel Beckman).

A further series concerns erbB-2, 3, 4. The experiment in a line: Inhibition of conditioned media-induced autophosphorylation in SK-BR-3 breast tumor cells. It counts as cell-based, human. Particulars: SK-BR-3 cells, read-out: SKBR-3 IC50. As for the experimental part: (§1) Cells were grown to 100% confluency in 100 mm Petrie dishes (Corning). After the cells were treated for 5 minutes with either EGF (epidermal growth factor), PDGF, or bFGF (basic fibroblast growth factor) (20 ng/ml) or 1 ml of conditioned media from MDA-MB-231 cells, the media was removed and the monolayer scraped into 1 ml of ice cold lysis buffer (50 mM Hepes, pH 7.5, 150 mM NaCl, 10% glycerol, 1% triton X-100, 1 mM EDTA, 1 mM EGTA, 10 mM sodium pyrophosphate, 30 mM p-nitrophenyl phosphate, 1 mM orthovanadate, 50 mM sodium fluoride, 1 mM phenylmethylsulfonylfluoride, 10 μg/ml of aprotinin, and 10 μg/ml of leupeptin). The lysate was transferred to a microfuge tube (small centrifuge that holds 1-2 ml plastic centrifuge tubes), allowed to sit on ice 15 minutes and centrifuged 5 minutes at 10,000×g. The supernatant was transferred to a clean microfuge tube and 5 μg of antibody was added to designated samples. The tubes were rotated for 2 hours at […] after which 25 μl of protein A sepharose was added and then rotation continued for at least 2 more hours. The protein A separose was washed 5 times with 50 mM Hepes, pH 7.5, 150 mM NaCl, 10% glycerol and 0.02% sodium azide. […] The extract were transferred to a microfuge tube and heated to 100° C. for 5 minutes. […] Proteins in the gel were electrophoretically transferred to nitrocellulose and the membrane was washed once in 10 mM Tris buffer, pH 7.2, 150 mM NaCl, 0.01% Azide (TNA) and blocked overnight in TNA containing 5% bovine serum albumin and 1% ovalbumin (blocking buffer). The membrane was blotted for 2 hours with the primary antibody (1 μg/ml in blocking buffer) and then washed 2 times sequentially in TNA, TNA containing 0.05% Tween-20 and 0.05% Nonidet P-40 (commercially available detergent) and TNA.

The next series has as its target T2, EGF receptor (Homo sapiens, UniProt P00533).
T2 construct: EGF receptor autophosphorylation in A431 human epidermoid carcinoma; endogenous in cells; host or cells: A431 human epidermoid carcinoma cells (ATCC)
The experiment in a line: Inhibition of EGF-induced autophosphorylation in A431 epidermoid carcinoma cells. In kind it is cell-based. As for the experimental part: as §1

Setting [2] is: Table 1, values in nM, read-out: EGF Receptor Tyrosine Kinase Inhibition IC50.
The mark [3] stands for this setting: enzyme value repeated in the autophosphorylation table, read-out: EGFR IC50.
[4] abbreviates: Table 1, values printed in μM, read-out: EGF Receptor Tyrosine Kinase Inhibition IC50.

T2 sequence (P00533 25-1210): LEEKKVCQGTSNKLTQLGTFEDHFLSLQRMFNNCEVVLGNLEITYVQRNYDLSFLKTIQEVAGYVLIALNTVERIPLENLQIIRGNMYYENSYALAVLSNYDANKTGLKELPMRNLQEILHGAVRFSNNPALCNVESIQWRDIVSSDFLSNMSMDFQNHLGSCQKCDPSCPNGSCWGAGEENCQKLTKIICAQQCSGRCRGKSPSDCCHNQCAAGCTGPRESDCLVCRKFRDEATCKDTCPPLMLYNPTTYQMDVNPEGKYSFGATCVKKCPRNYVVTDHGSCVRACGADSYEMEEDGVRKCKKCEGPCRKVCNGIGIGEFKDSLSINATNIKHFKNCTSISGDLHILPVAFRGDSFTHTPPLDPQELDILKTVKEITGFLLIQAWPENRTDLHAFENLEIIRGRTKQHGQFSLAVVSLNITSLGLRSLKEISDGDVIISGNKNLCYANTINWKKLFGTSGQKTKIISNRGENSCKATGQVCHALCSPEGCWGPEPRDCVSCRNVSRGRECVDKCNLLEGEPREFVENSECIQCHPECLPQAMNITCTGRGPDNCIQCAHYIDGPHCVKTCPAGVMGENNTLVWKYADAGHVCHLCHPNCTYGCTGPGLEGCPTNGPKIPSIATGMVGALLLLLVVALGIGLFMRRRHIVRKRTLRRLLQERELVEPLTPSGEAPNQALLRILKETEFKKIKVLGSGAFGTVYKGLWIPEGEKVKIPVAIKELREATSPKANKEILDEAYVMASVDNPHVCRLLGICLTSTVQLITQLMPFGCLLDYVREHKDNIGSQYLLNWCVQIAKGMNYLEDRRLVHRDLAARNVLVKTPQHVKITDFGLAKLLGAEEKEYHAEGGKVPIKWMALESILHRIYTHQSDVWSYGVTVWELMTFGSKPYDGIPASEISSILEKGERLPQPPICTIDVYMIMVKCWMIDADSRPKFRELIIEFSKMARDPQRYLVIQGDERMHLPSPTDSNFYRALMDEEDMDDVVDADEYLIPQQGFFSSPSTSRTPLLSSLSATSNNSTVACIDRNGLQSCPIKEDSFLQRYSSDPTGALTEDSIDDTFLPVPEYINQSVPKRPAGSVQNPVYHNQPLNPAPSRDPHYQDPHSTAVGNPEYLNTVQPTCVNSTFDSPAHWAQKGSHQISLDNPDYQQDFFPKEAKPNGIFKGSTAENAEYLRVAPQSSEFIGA
T1 sequence (P00533 25-1210): as above

Usually IC50 stands for the point on the concentration scale where inhibition reaches its midpoint. As a reminder, the melting point is the temperature of the solid-liquid transition. Compound `C[C@@H](Nc1ncnc2ccncc12)c1ccccc1` [Example 39, 4-([R]-1-Phenylethylamino)pyrido[4,3-d]pyrimidine] displayed a melting point of 138 to 138.5 °C. Further, the IC50 in series [1] (setting [2]) is 590 nM.

On to `NNc1ncc2c(NCc3ccccc3)ncnc2n1` [Example 70, 4-Benzylamino-7-hydrazinopyrimido[4,5-d]pyrimidine], for which the IC50 in the series with erbB-2, 3, 4 was below 10 nM; in series [1] (setting [2]), 473 nM; in series [1] (setting [3]), 11 nM.

Regarding `Nc1cc2ncnc(Nc3cccc([N+](=O)[O-])c3)c2cn1` [Example 22, 7-Amino-4-(3-nitroanilino)pyrido[4,3-d]pyrimidine], the IC50 against EGF receptor was 252 nM; with erbB-2, 3, 4, around 1500 nM; in series [1] (setting [2]), 39 nM; in series [1] (setting [3]), 39 nM.

For the compound `CN(C)c1ccc2ncnc(Nc3cccc(Br)c3)c2n1` [Example 8, 4-(3-Bromoanilino)-6-dimethylaminopyrido[3,2-d]pyrimidine], the IC50 came to 32 nM on EGF receptor; 71 nM in the series with erbB-2, 3, 4; 9.6 nM in series [1] (setting [2]); 9.6 nM in series [1] (setting [3]).

Regarding `Fc1ccc2ncnc(Nc3cccc(Br)c3)c2n1` [Example 4, 4-(3-Bromoanilino)-6-fluoropyrido[3,2-d]pyrimidine], the IC50 is above 1000 nM against EGF receptor; above 10000 nM in the series with erbB-2, 3, 4; 225 nM in series [1] (setting [2]); 225 nM in series [1] (setting [3]).

With `c1ccc(CNc2nc[nH]c3nccc2-3)cc1` [Example 74, 4-Benzylaminopyrrolo[2,3-d]pyrimidine], the IC50 was above 1000 nM in the series on erbB-2, 3, 4; 11500 nM in series [1] (setting [4]); 55 nM in series [1] (setting [3]).

For `Nc1ccc2ncnc(Nc3cccc(Br)c3)c2n1` [Example 6, 4-(3-Bromoanilino)-6-aminopyrido[3,2-d]pyrimidine], the IC50 is 53 nM against EGF receptor; 2660 nM with erbB-2, 3, 4; 7.6 nM in series [1] (setting [2]); 7.6 nM in series [1] (setting [3]).

`C[C@@H](Nc1ncnc2cc(N)ncc12)c1ccccc1` [Example 41, 7-Amino-4-([R]-1-phenylethylamino)pyrido[4,3-d]pyrimidine] showed a melting point of 231.8 to 232.1 °C. Moreover, in series [1] (setting [2]), the IC50 is 220 nM.

`CNc1ccc2ncnc(Nc3cccc(Br)c3)c2n1` [Example 7, 4-(3-Bromoanilino)-6-methylaminopyrido[3,2-d]pyrimidine]: the IC50 on EGF receptor was 20 nM; in the series with erbB-2, 3, 4, 100 nM; in series [1] (setting [2]), 3.1 nM; in series [1] (setting [3]), 3.1 nM.

As for `Clc1cc2c(Nc3cccc(Br)c3)ncnc2cn1` [Example 58, 4-(3-Bromoanilino)-6-chloropyrido[3,4-d]pyrimidine], in series [1] (setting [2]), the IC50 amounted to 40 nM.

For the compound `CN(C)c1cc2ncnc(Nc3cccc(Br)c3)c2cn1` [Example 34, 4-(3-Bromoanilino)-7-dimethylaminpyrido[4,3-d]pyrimidine], the IC50 in series [1] (Table 1, values in pM, read-out: EGF Receptor Tyrosine Kinase Inhibition IC50) was 0.091 nM.

Regarding `CN(C)c1cccc(Nc2ncnc3cc(N)ncc23)c1` [Example 19, 7-Amino-4-(3-dimethylaminoanilino)pyrido [4,3-d]pyrimidine], in series [1] (setting [4]), the IC50 came out at 1800 nM.

For `COc1cccc(Nc2ncnc3cc(N)ncc23)c1` [Example 15, 7-Amino-4-(3-methoxyanilino)pyrido[4,3-d]pyrimidine], the IC50 in series [1] (setting [2]) is 134 nM.

Take `Nc1cc2ncnc(Nc3cccc(I)c3)c2cn1` [Example 29, 7-Amino-4-(3-iodoanilino)pyrido[4,3-d]pyrimidine]: the IC50 in series [1] (setting [2]) was found to be 262 nM.

Take `Brc1cccc(Nc2ncnc3cnc(N4CCCCC4)cc23)c1` [Example 79, 4-(3-Bromoanilino)-6-(piperidin-1-yl)pyrido[3,4-d]pyrimidine]: the IC50 in series [1] (setting [2]) is 6.7 nM.

For the compound `CN(C)c1ccc(Nc2ncnc3cc(N)ncc23)cc1` [Example 20, 7-Amino-4-(4-dimethylaminoanilino)pyrido[4,3-d]pyrimidine], in series [1] (setting [4]), the IC50 was found to be 4900 nM.

On to `c1ccc(CNc2ncnc3nc[nH]c23)cc1` [Example 76, N^6-Benzyladenine], for which the IC50 in series [1] (setting [4]) came out at 10000 nM.

For the compound `Nc1cc2ncnc(Nc3cccc(F)c3)c2cn1` [Example 23, 7-Amino-4-(3-fluoroanilino)pyrido[4,3-d]pyrimidine], the IC50 in series [1] (setting [2]) was determined as 840 nM.

Take `Fc1ccc2c(Nc3cccc(Br)c3)ncnc2n1` [Example 64, 4-(3-Bromoanilino)-7-fluoropyrido[2,3-d]pyrimidine]: the IC50 in series [1] (setting [2]) is 11 nM.

As to `Nc1cc2ncnc(Nc3ccc(Cl)c(Cl)c3)c2cn1` [Example 25, 7-Amino-4-(3,4-dichloroanilino)pyrido[4,3-d]pyrimidine], the IC50 in series [1] (setting [2]) was found to be 377 nM.

As to `c1ccc(CNc2ncnc3ccsc23)cc1` [Example 72, 4-Benzylaminothieno[3,2-d]pyrimidine], the IC50 in series [1] (setting [2]) stood at 35 nM.

Consider `Brc1cccc(Nc2ncnc3sccc23)c1` [Example 73, 4-(3-Bromoanilino)thieno[2,3-d]pyrimidine], for which the IC50 in series [1] was 36 nM.

Regarding `Nc1cc2ncnc(Nc3ccc(C(F)(F)F)cc3)c2cn1` [Example 32, 7-Amino-4-(4-trifluoromethylanilino)3pyrido[4,3-d]pyrimidine], the IC50 in series [1] (setting [4]) came to 4700 nM.

With `Nc1cc2ncnc(Nc3ccccc3C(F)(F)F)c2cn1` [Example 30, 7-Amino-4-(2-trifluoromethylanilino)pyrido[4,3-d]pyrimidine], the melting point is 126 to 130 °C (dec.). For the same compound, the IC50 in series [1] (setting [4]) came to 10000 nM.

Regarding `COc1ccc(Nc2ncnc3cc(N)ncc23)cc1` [Example 78, 7-Amino-4-(4-methoxyanilino)pyrido[4,3-d]pyrimidine], the IC50 in series [1] (setting [2]) is 670 nM.

Turning to `Fc1cc2ncnc(Nc3cccc(Br)c3)c2cn1` [Example 12, 4-(3-Bromoanilino)-7-fluoropyrido[4,3-d]pyrimidine], the half-maximal inhibitory concentration (IC50) in series [1] (setting [2]) came out at 13 nM.

With `Nc1cc2ncnc(NCc3cccs3)c2cn1` [Example 53, 7-Amino-4-(thien-2-ylmethylamino)[4,3-d]pyrimidine Dimesylate], the IC50 in series [1] (setting [4]) is 1800 nM.

Consider `CC(=O)Nc1cc2ncnc(Nc3cccc(Br)c3)c2cn1` [Example 36, 7-Acetylamino-4-(3-bromoanilino)pyrido[4 3-d]pyrimidine], for which, in series [1] (setting [2]), the IC50 worked out at 29 nM.

Turning to `COc1ccc2c(Nc3cccc(Br)c3)ncnc2n1` [Example 68, 4-(3-Bromoanilino)-7-methoxypyrido[2,3-d]pyrimidine], the IC50 in series [1] (setting [2]) was 263 nM.

As for `COc1cc2c(Nc3cccc(Br)c3)ncnc2cn1` [Example 59, 4-(3-Bromoanilino)-6-methoxypyrido[3,4-d]pyrimidine], the IC50 at EGF receptor is 12 nM; in the series on erbB-2, 3, 4, below 10 nM; in series [1] (setting [2]) it was 2.6 nM; in series [1] (setting [3]), 2.6 nM.

As to `Nc1cc2ncnc(NCc3ccccc3C(F)(F)F)c2cn1` [Example 50, 7-Amino-4-(2-trifluoromethylbenzylamino)pyrido[4,3-d]pyrimidine], the IC50 in series [1] (setting [4]) turned out to be 10000 nM.

(Values after patent US6521620B1, “Bicyclic compounds capable of inhibiting tyrosine kinases of the epidermal growth factor receptor family” (Warner-Lambert Company, priority 1994, dated 2003).)
